Experimental data published in US20090124688A1, “Prostaglandin reductase inhibitors” (priority 2006, published 2009).
Values belong to the molecule of their own block, whether it stands above or below them.

Assays:
PGR-2 [1] = biological target: T1, PGR-2 (Mus musculus, UniProt Q8VDQ1); experiment: PGR-2 enzymatic activity: substrate specificity and kinetics; type: biochemical; conditions: for specific activity with PGR-2 (substrate specificity): 15-keto PGE2 replaced with the substrate, 0.5 mM NADPH, 2 hours at 37° C.; for reduction catalyzed by PGR-2 (kinetics studies): recombinant PGR-2, NADPH cofactor
T1 construct: GST (N); made in house; host or cells: E. coli
Description: Mouse PGR-2 was recombinantly expressed in E. coli as a GST fusion protein following standard procedures. The recombinant PGR-2 protein thus obtained was used to determine substrate specificity and enzymatic kinetics.
Substrate specificity of PGR-2 was determined using the just-described procedure, except that 15-keto PGE2 was replaced with each of six prostaglandin substrates, each of three downstream metabolites, or leukotriene B4. The substrates were purchased from Cayman Chemical Company (Michigan, USA).
Unlike PGR/LTB4DH, PGR-2 used NADPH as a cofactor much more efficiently than NADH.
The substrate was 15-keto prostaglandin E1, 15-keto prostaglandin E2, 15-keto prostaglandin F1α, 15-keto prostaglandin F2α, 15-keto-fluprostenol isopropyl ester, or 15-keto-fluprostenol, which were purchased from Cayman Chemical Company (Michigan, USA). […] Absorbance at 490 nm was measured by an ELISA plate reader.

PPARs = experiment: Reporter gene assay of endogenous PPARs activity in 3T3-L1 cells; type: cell-based, mouse; conditions: 3T3-L1 cells induced to differentiate for two days, transfected with reporter gene
Description: (§1) The effect of prostaglandin on PPAR-γ activity in adipocytes was investigated. After treatment with a medium that induces cell differentiation, 3T3-L1 cells were treated from day 2 to 4 during adipogenesis with 14 μM 15-keto PGE2, 13,14-dihydro-15-keto PGE2, 15-keto PGF2α, 13,14-dihydro-15-keto PGF2α, or 4.5 μM of BRL49653 (a PPAR-γ agonist). See Forman et al., Cell (1995) 83:803-812. At day 6, aggregates of lipid droplets were stained with oil-red O for observation. […] After being induced to differentiate for two days, the 3T3-L1 cells were transfected with a reporter gene.

PPAR-γ target genes = experiment: Protein expression of adipogenesis-specific PPAR-γ target genes in 3T3-L1 cells; type: cell-based, mouse
Text: Also examined was the ability of 15-keto PGE2 to induce protein expression of adipogenesis-specific, PPAR-γ target genes, i.e., IRS-1and -2.

3T3-L1 cells [2] = experiment: Adipogenesis in 3T3-L1 cells, oil-red O staining of lipid droplets; type: cell-based, mouse; conditions: 14 μM, day 2 to 4 during adipogenesis; stained at day 6
Description: as §1

PPAR-γ [3] = biological target: T2, PPAR-γ (Homo sapiens, UniProt P37231); experiment: Luciferase reporter with PPAR ligand-binding domain fused to GAL4 DNA-binding domain in 3T3-L1 cells; type: cell-based
T2 construct: expressed in transfected cells; host or cells: 3T3-L1
T2 sequence (P37231 238-503 limits assumed): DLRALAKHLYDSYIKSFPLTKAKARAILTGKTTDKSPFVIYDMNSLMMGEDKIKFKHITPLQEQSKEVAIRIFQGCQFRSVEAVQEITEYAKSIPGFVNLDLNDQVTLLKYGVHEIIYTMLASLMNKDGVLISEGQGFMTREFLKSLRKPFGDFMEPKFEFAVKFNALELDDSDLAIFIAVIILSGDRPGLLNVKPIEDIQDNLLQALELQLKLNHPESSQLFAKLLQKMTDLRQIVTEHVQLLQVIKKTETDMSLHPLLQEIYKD
Text: (§2) A luciferase reporter gene was transfected to 3T3-L1 cells together with the ligand-binding domain of […], PPAR-γ or […] fused to a yeast GAL4 DNA-binding domain.

PPAR-α = biological target: T3, PPAR-α (Homo sapiens, UniProt Q07869); experiment: as above; type: cell-based; conditions: relative to PPAR-γ activation
T3 construct: expressed in transfected cells; host or cells: 3T3-L1
T3 sequence (Q07869 239-466 limits assumed): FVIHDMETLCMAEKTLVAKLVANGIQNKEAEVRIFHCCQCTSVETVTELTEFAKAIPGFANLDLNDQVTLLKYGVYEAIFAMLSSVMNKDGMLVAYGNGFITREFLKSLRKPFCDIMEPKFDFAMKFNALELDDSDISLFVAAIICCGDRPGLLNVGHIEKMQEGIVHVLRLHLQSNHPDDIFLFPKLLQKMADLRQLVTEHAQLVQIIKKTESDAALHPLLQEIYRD
Text: as §2

3T3-L1 cells [4] = experiment: Glucose transport assay, uptake of 2-deoxy-D-[3H]glucose in differentiated 3T3-L1 cells; type: cell-based, mouse
Description: 3T3-L1cells were induced to differentiate in the same manner as described above. A glucose transport assay was performed by measuring uptake of 2-deoxy-D-[3H]glucose as described by Fingar et al. See Fingar et al., Endocrinology 134:728-735. 1.67 μM of the compound or 45 nM of a PPARs agonist, i.e., Avandia, was added to the cells. 10 μM cytochalasin-B was used to measure background glucose uptake levels.

[5] = system: Female diabetic mice (C57BLKS/J-m+/+Lep^db); experiment: Blood glucose levels in diabetic mice; type: in vivo, mouse; conditions: 25 mg/kg intraperitoneally twice a day for two days; fasted 48th through 52nd hour
Description: The in vivo effect compound 45 on glucose metabolism was also investigated. Female diabetic mice were obtained from the Jackson Laboratory (C57BLKS/J-m+/+Lep^db, 12 to 13 weeks old). These mice were characterized as insulin-resistant and hyperglycemic. 25 mg/kg of 2,2′-dihydroxychalcone (n=8) or placebo (n=4, final concentration against body fluid: 0.5% DMSO/1% ethanol) was injected intraperitoneally to the mice twice a day for two days. The mice were then fasted from the 48th hour through 52nd hour after the first injection. Blood samples were collected from the retro-orbital sinus before the first injection, and every two hours after two days of treatment. Blood glucose levels were measured by an electrode-type blood glucose meter (HORIBA, AntSense II, Japan).

PGR-2 [6] = experiment: RNA interference silencing of PGR-2 expression in 3T3-L1 cells; type: cell-based, mouse; conditions: transfection into 3T3-L1 fibroblasts or differentiating pre-adipocytes
Text: (§3) An RNA interference (RNAi) approach was used to silence PGR-2 expression. Two small interfering RNA (siRNA) duplexes, i.e., […] (SEQ ID NO:7) and […] (SEQ ID NO:8), were annealed first and then introduced into 3T3-L1 fibroblasts or differentiating pre-adipocytes by transfection using oligofectamine (Invitrogen). Transfection of the siRNA duplexes reduced PGR-2 expression. In another experiment, transfection of the siRNA duplexes increased transcriptional activation of PPAR-γ. Thus, one can modulate PPAR-γ activity via silencing PGR-2 expression by RNA interference.

PPAR-γ [7] = experiment: Transcriptional activation of PPAR-γ after siRNA transfection; type: cell-based; conditions: transfection of siRNA duplexes
Text: as §3

T1 sequence (Q8VDQ1 whole entry): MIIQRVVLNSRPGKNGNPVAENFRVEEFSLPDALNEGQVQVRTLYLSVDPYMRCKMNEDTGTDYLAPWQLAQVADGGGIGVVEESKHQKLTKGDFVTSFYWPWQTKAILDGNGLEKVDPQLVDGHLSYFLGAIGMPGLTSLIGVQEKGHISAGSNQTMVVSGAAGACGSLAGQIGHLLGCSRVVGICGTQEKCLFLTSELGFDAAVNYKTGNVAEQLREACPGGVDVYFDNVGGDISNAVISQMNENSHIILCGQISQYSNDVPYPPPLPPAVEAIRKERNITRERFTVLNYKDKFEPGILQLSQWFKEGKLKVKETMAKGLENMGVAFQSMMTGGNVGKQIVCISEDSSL

Molecule: CCCCCC(=O)CC[C@@H]1[C@@H](C/C=C\CCCC(=O)O)[C@@H](O)C[C@H]1O [13,14-dihydro-15-keto PGF2α]
endogenous PPARs activity (reporter gene) (PPARs): failed to increase PPARs activity

Molecule: CC(C)OC(=O)CCC/C=C\C[C@@H]1[C@@H](/C=C/C(=O)COc2cccc(C(F)(F)F)c2)[C@H](O)C[C@@H]1O [15-keto fluprostenol isopropyl ester]
reduction catalyzed by PGR-2 (kinetics studies) (PGR-2 [1]): catalyzed reduction

Molecule: O=C(O)CCC/C=C\C[C@@H]1[C@@H](/C=C/C(=O)COc2cccc(C(F)(F)F)c2)[C@H](O)C[C@@H]1O [15-keto fluprostenol]
reduction catalyzed by PGR-2 (kinetics studies) (PGR-2 [1]): catalyzed reduction

Molecule: O=C(c1cc2cc(Cl)ccc2oc1=O)c1cc2cc(Cl)ccc2oc1=O [Compound 27]
ability to enhance glucose uptake compared with Avandia (3T3-L1 cells [4]; 1.67 μM compound vs 45 nM Avandia): comparable to that of Avandia
increase of glucose uptake (3T3-L1 cells [4]; differentiated 3T3-L1 cells, 1.67 μM compound, 100 nM insulin to stimulate uptake): 30 folds

Molecule: O=C(/C=C/c1ccccc1O)c1ccccc1O [Compound 45, 2,2′-dihydroxychalcone]
blood glucose levels compared to placebo controls [5]: significant reduction

Molecule: SEQ ID NO:7: small interfering RNA (siRNA) duplex gaguucaguuuaccggaug to silence PGR-2 expression (GAGUUCAGUUUACCGGAUG; chemistry not given here)
PGR-2 expression (PGR-2 [6]): reduced
transcriptional activation of PPAR-γ (PPAR-γ [7]): increased

Molecule: SEQ ID NO:8: small interfering RNA (siRNA) duplex guucaagugaggacucuuu to silence PGR-2 expression (GUUCAAGUGAGGACUCUUU; chemistry not given here)
PGR-2 expression (PGR-2 [6]): reduced
transcriptional activation of PPAR-γ (PPAR-γ [7]): increased

More lines, main results first:

specific activity with PGR-2 (substrate specificity) (PGR-2 [1]): no specific activity was detected
Molecule: CCCCC[C@H](O)/C=C/[C@@H]1[C@@H](CC(=O)CCCCC(=O)O)[C@@H](O)C[C@H]1O [6-keto PGF1α]

specific activity with PGR-2 (substrate specificity) (PGR-2 [1]): no specific activity was detected
Molecule: CCCCCC(=O)CC[C@H]1[C@H](O)CC(=O)[C@@H]1C/C=C\CCCC(=O)O [13,14-dihydro-15-keto PGE2]
endogenous PPARs activity (reporter gene) (PPARs): failed to increase PPARs activity

specific activity with PGR-2 (substrate specificity) (PGR-2 [1]): reacted specifically
reduction catalyzed by PGR-2 (kinetics studies) (PGR-2 [1]): catalyzed reduction
Molecule: CCCCCC(=O)/C=C/[C@H]1[C@H](O)CC(=O)[C@@H]1CCCCCCC(=O)O [15-keto PGE1, 15-keto prostaglandin E1]

reduction catalyzed by PGR-2 (kinetics studies) (PGR-2 [1]): catalyzed reduction
activation of PPAR-γ (GAL4 fusion, luciferase reporter) (PPAR-γ [3]): activated
activation of PPAR-α (GAL4 fusion, luciferase reporter) (PPAR-α): to a lesser degree
Molecule: CCCCCC(=O)/C=C/[C@H]1[C@H](O)CC(=O)[C@@H]1C/C=C\CCCC(=O)O [15-keto PGE2, 15-keto prostaglandin E2]
endogenous PPARs activity (reporter gene) (PPARs): enhanced endogenous PPARs activity significantly
amount of IRS-1 protein (PPAR-γ target genes): did not increase
PPAR-γ1 and PPAR-γ2 expression (PPAR-γ target genes; added with MIX, insulin and dexamethasone): significantly enhanced
expression of aP2, an adipocyte-specific marker (PPAR-γ target genes; even in the absence of MIX): strongly induced
IRS-2 expression (PPAR-γ target genes; in the presence of insulin and dexamethasone): enhanced the expression to a level similar to MIX
adipogenesis (lipid droplets stained with oil-red O) (3T3-L1 cells [2]): effectively enhanced adipogenesis at a level similar to BRL49653

specific activity with PGR-2 (substrate specificity) (PGR-2 [1]): reacted specifically
reduction catalyzed by PGR-2 (kinetics studies) (PGR-2 [1]): catalyzed reduction
Molecule: CCCCCC(=O)/C=C/[C@@H]1[C@@H](CCCCCCC(=O)O)[C@@H](O)C[C@H]1O [15-keto PGF1α, 15-keto prostaglandin F1α]

specific activity with PGR-2 (substrate specificity) (PGR-2 [1]): reacted specifically
reduction catalyzed by PGR-2 (kinetics studies) (PGR-2 [1]): catalyzed reduction
activation of PPAR-γ (GAL4 fusion, luciferase reporter) (PPAR-γ [3]): activated
activation of PPAR-α (GAL4 fusion, luciferase reporter) (PPAR-α): to a lesser degree
Molecule: CCCCCC(=O)/C=C/[C@@H]1[C@@H](C/C=C\CCCC(=O)O)[C@@H](O)C[C@H]1O [15-keto PGF2α, 15-keto prostaglandin F2α]
endogenous PPARs activity (reporter gene) (PPARs): enhanced endogenous PPARs activity significantly

specific activity with PGR-2 (substrate specificity) (PGR-2 [1]): no specific activity was detected
Molecule: CCCCC/C=C\C[C@@H](O)/C=C/C=C/C=C\[C@@H](O)CCCC(=O)O [leukotriene B4]
